# Assay results from patent publication US20100069319A1, “Mercaptopurine derivatives and uses thereof” (priority 2007, published 2010).
# Like-named read-outs stand apart in the source and are kept apart here.
# Assays:
# [1] = tested on: Daudi cells; assay: XTT cell proliferation assay; type: cell-based; details: 16 h
# Procedure: (§1) Cell proliferation was determined by the XTT viability assay in 96-well plates, based on the reduction of tetrazolium salt to soluble formazan compounds by living cells. Cells (10,000-15,000 cells/well) were seeded in a 96-well plate. After 16 h incubation with various concentrations of 6-MP, 6-MPR and their S-allylthio-derivatives, 50 μl of XTT/PMS mixture (50 μM PMS, 0.1% XTT in medium) was added onto the cells. After an incubation period of 3-4 h at 37° C. the absorbance of the samples was measured in an ELISA Reader at 450 nm. SDS (1%, 10 μl/well) was added to reference wells before adding the XTT/PMS solution.
# (§2) The inhibitory effects of the various prodrugs on Daudi leukemia cell and on monolayer N87 cells were compared. […] XTT was added to the wells for 3 h at 37° C. Cell viability was monitored using an ELISA reader at 450 nm, as described in Materials and Methods.
# [2] = tested on: N87 cells; assay: XTT cell proliferation assay; type: cell-based, human; details: 16 h
# Procedure: as §1, §2
# [3] = tested on: Jurkat; assay: Anti-proliferative concentration IC50 (Table 2); type: cell-based, human; details: 16 h, tested at 0-100 μM, read-out: Anti-proferative concentration - IC50 (mean ± SE)
# Procedure: as §1
# (§3) The results of viability and proliferation were expressed as mean values±SD (n=3-6). For each cell line, the results were analyzed using two-way analysis of variance (ANOVA) followed by Bonferroni's posttest for the factors of the drugs used and their various concentrations, considering p<0.05 as significant. IC50 values (mean±SEM) were obtained from the linear range of the viability curve versus drug concentration (XTT assay).
# (§4) In particular, cell in suspension, namely, Daudi, HL-60, U937, Molt-4, Jurkat and B-CLL, were tested at prodrug concentration of 0-100 μM, and monolayer cells, namely, Hela HtTA-1, MDR HT-29 and N87, were tested at prodrug concentration of 0-200 μM. in both cases, cell viability was determined by trypan blue dye exclusion assay. Data are presented in Table 2 hereinbelow for 6MP derivatives-treated for 16 h.
# [4] = tested on: U937; assay: Anti-proliferative concentration IC50 (Table 2); type: cell-based, human; details: U937, 16 h, tested at 0-100 μM, read-out: Anti-proferative concentration - IC50 (mean ± SE)
# Procedure: as §1, §3, §4
# [5] = tested on: Molt-4; assay: Anti-proliferative concentration IC50 (Table 2); type: cell-based; details: Molt-4, 16 h, tested at 0-100 μM, read-out: Anti-proferative concentration - IC50 (mean ± SE)
# Procedure: as §1, §3, §4
# [6] = tested on: human peripheral blood mononuclear cells (PBMCs); details: after 4 days of treatment, read-out: IC50, T-cell mitogen-induced blastogenesis; cited from earlier work
# [7] = tested on: HL-60; assay: Anti-proliferative concentration IC50 (Table 2); type: cell-based, human; details: HL-60, 16 h, tested at 0-100 μM, read-out: Anti-proferative concentration - IC50 (mean ± SE)
# Procedure: as §1, §3, §4
# [8] = tested on: Hela; assay: Anti-proliferative concentration IC50 (Table 2); type: cell-based, human; details: 16 h, tested at 0-200 μM, read-out: Anti-proferative concentration - IC50 (mean ± SE)
# Procedure: as §1, §3, §4
# [9] = tested on: MDR HT-29; assay: Anti-proliferative concentration IC50 (Table 2); type: cell-based, human; details: MDR HT-29, 16 h, tested at 0-200 μM, read-out: Anti-proferative concentration - IC50 (mean ± SE)
# Procedure: as §1, §3, §4
# [10] = tested on: N87; assay: Anti-proliferative concentration IC50 (Table 2); type: cell-based, human; details: N87, 16 h, tested at 0-200 μM, read-out: Anti-proferative concentration - IC50 (mean ± SE)
# Procedure: as §1, §3, §4
# [11] = tested on: Daudi; assay: Anti-proliferative concentration IC50 (Table 2); type: cell-based; details: 16 h, tested at 0-100 μM, read-out: Anti-proferative concentration - IC50 (mean ± SE)
# Procedure: as §1, §3, §4
# [12] = tested on: B-CLL cells; details: 48 h, read-out: calculated IC50 for allicin induced-apoptosis; cited from earlier work
compound,measurement,setting,value
"OC[C@H]1O[C@@H](n2cnc3c(S)ncnc32)[C@H](O)[C@@H]1O [6-MPR, 6-mercaptopurine riboside, reference compound]",cell proliferation,[1]; 0-100 μM,no significant loss of cell proliferation
same,cell proliferation,"[2]; N87, 0-100 μM",no significant loss of cell proliferation
same,proliferation (residual),"[2]; N87, 150 μM",~75%
same,IC50,[3]; Homo sapiens,99 ± 11.9 µM
same,IC50,"[4]; Homo sapiens, U-937",> 200 µM
same,IC50,[5]; Homo sapiens,24.8 ± 2.5 µM
"Cn1cnc([N+](=O)[O-])c1Sc1ncnc2nc[nH]c12 [AZ, azathioprine]",IC50,[6],0.23 ± 0.231 µM
"C=CCS[S+]([O-])CC=C (stereo not drawn) [Allicin, reference compound]",IC50,[7]; Homo sapiens,5.5 ± 0.6 µM
same,IC50,[8]; Homo sapiens,104 ± 10.2 µM
same,IC50,[9]; Homo sapiens,83.8 ± 7.8 µM
same,IC50,[10]; Homo sapiens,16.8 ± 3.3 µM
same,IC50,"[4]; Homo sapiens, U-937",19.7 ± 2.1 µM
same,IC50,[11]; Homo sapiens,35.3 ± 4.2 µM
same,IC50,[12],0.02 µM
"C=CCSSc1ncnc2c1ncn2[C@@H]1O[C@H](CO)[C@@H](O)[C@H]1O [SA-6MPR, S-allylthio-6-mercaptopurine 9-riboside]",residual proliferation,[1]; 50 μM,60%
same,residual proliferation,[1]; 100 μM,25%
same,residual proliferation / viability,"[2]; N87, 50 μM",about 70%
same,residual viability,"[2]; N87, 100 μM",~55%
same,proliferation,"[2]; N87, 150 μM",complete loss of proliferation
same,IC50,[7],86.1 ± 9.5 µM
same,IC50,[8],> 200 µM
same,IC50,[3],69.1 ± 7.5 µM
same,IC50,[9],> 200 µM
same,IC50,[10],120 ± 15.6 µM
same,IC50,[4],113 ± 10.9 µM
same,IC50,[11],70.8 ± 7.8 µM
same,IC50,[5],16.9 ± 2.3 µM
